Measured values reported in ChEMBL document CHEMBL3244265, “Preparation and biological actions of some symmetrically N,N-disubstituted dopamines” (J Med Chem, 1978).
The source made the active and inactive calls. No cut-off for these calls is given here.

Assays:
Rattus norvegicus [1] = assay: Induction of circling behaviour in sc dosed Sprague-Dawley rat in presence of 0.8 mg/kg haloperidol; format: functional, organism-based; design: dose 0.8 mg/kg
Felis catus [2] = assay: Inhibition of 2 Hz electric current-induced cardioaccelerator nerve stimulation in iv dosed cat by cardiotachometer analysis; format: functional
Felis catus [3] = assay: Inhibition of 10 Hz electric current-induced cardioaccelerator nerve stimulation in iv dosed cat by cardiotachometer analysis; format: functional, organism-based
Columba livia [4] = assay: Antagonism of apomorphine-induced pecking in im dosed pigeon treated 15 mins prior to apomorphine challenge; format: functional
Rattus norvegicus [5] = assay: Induction of hyperactivity in Sprague-Dawley rat administered into nucleus accumbens; format: functional, organism-based
Felis catus [6] = assay: Hypotensive activity in iv dosed cat in presence of haloperidol; format: functional, organism-based
Rattus norvegicus [7] = assay: Induction of circling behaviour in Sprague-Dawley rat administered into caudate putamen in presence of aceperone; format: functional, organism-based
Rattus norvegicus [8] = assay: Induction of circling behaviour in Sprague-Dawley rat administered into nucleus accumbens in presence of haloperidol; format: functional, organism-based
Rattus norvegicus [9] = assay: Induction of stereotyped behaviour in Sprague-Dawley rat administered into caudate putamen in presence of 5 mg/kg aceperone; format: functional, organism-based; design: dose 5 mg/kg
Rattus norvegicus [10] = assay: Induction of hyperactivity in Sprague-Dawley rat administered into nucleus accumbens in presence of 5 mg/kg aceperone; format: functional, organism-based; design: dose 5 mg/kg
Columba livia [11] = assay: Induction of pecking in im dosed pigeon; format: functional, organism-based
Felis catus [12] = assay: Inhibition of 2 Hz electric current-induced cardioaccelerator nerve stimulation in iv dosed cat by cardiotachometer analysis in presence of 0.2 mg/kg, iv haloperidol; format: functional, organism-based; design: dose 0.2 mg/kg; conditions: at 0.2 mg/kg
Rattus norvegicus [13] = assay: Induction of circling behaviour in Sprague-Dawley rat administered into caudate putamen in presence of propranolol; format: functional, organism-based
Rattus norvegicus [14] = assay: Induction of circling behaviour in Sprague-Dawley rat administered into caudate putamen; format: functional, organism-based
Rattus norvegicus [15] = assay: Induction of hyperactivity in Sprague-Dawley rat administered into caudate putamen in presence of 0.2 to 0.8 mg/kg haloperidol; format: functional, organism-based
Rattus norvegicus [16] = assay: Induction of stereotyped behaviour in Sprague-Dawley rat at 2.5 to 20 mg/kg, sc; format: functional, organism-based
Rattus norvegicus [17] = assay: Induction of hyperactivity in Sprague-Dawley rat administered into nucleus accumbens in presence of 5 mg/kg propranolol; format: functional, organism-based; design: dose 5 mg/kg
Rattus norvegicus [18] = assay: Induction of stereotyped behaviour in Sprague-Dawley rat administered into nucleus accumbens in presence of 5 mg/kg propranolol; format: functional, organism-based; design: dose 5 mg/kg
Rattus norvegicus [19] = assay: Induction of circling behaviour in Sprague-Dawley rat administered into nucleus accumbens in presence of propranolol; format: functional, organism-based
Rattus norvegicus [20] = assay: Induction of circling behaviour in sc dosed Sprague-Dawley rat assessed as onset of action; format: functional
Rattus norvegicus [21] = assay: Induction of hyperactivity in Sprague-Dawley rat administered into caudate putamen in presence of 5 mg/kg propranolol; format: functional, organism-based; design: dose 5 mg/kg
Felis catus [22] = species on record: Felis catus; assay: Agonist activity at dopamine receptor in cat right atrium assessed as inhibition of cardiaccelerator nerve stimulation rate by cardiotachometer analysis; format: tissue-based; conditions: Cardiac atrium
Rattus norvegicus [23] = assay: Induction of circling behaviour in sc dosed Sprague-Dawley rat in presence of 5 mg/kg aceperone; format: functional, organism-based; design: dose 5 mg/kg
Rattus norvegicus [24] = assay: Induction of circling behaviour in Sprague-Dawley rat administered into nucleus accumbens in presence of aceperone; format: functional, organism-based
Rattus norvegicus [25] = assay: Induction of circling behaviour in sc dosed Sprague-Dawley rat in presence of 5 mg/kg propranolol; format: functional, organism-based; design: dose 5 mg/kg
Rattus norvegicus [26] = assay: Induction of hyperactivity in Sprague-Dawley rat administered into caudate putamen in presence of 5 mg/kg aceperone; format: functional, organism-based; design: dose 5 mg/kg
Rattus norvegicus [27] = assay: Induction of stereotyped behaviour in Sprague-Dawley rat administered into caudate putamen in presence of 5 mg/kg propranolol; format: functional, organism-based; design: dose 5 mg/kg
Rattus norvegicus [28] = assay: Induction of stereotyped behaviour in Sprague-Dawley rat administered into nucleus accumbens in presence of 0.2 to 0.8 mg/kg haloperidol; format: functional, organism-based
Rattus norvegicus [29] = assay: Induction of circling behaviour in Sprague-Dawley rat administered into nucleus accumbens; format: functional, organism-based
Rattus norvegicus [30] = assay: Induction of hyperactivity in Sprague-Dawley rat at 2.5 to 20 mg/kg, sc; format: functional, organism-based
Rattus norvegicus [31] = assay: Induction of hyperactivity in Sprague-Dawley rat administered into nucleus accumbens in presence of 0.2 to 0.8 mg/kg haloperidol; format: functional, organism-based
Rattus norvegicus [32] = assay: Induction of circling behaviour in sc dosed Sprague-Dawley rat assessed as duration of action; format: functional
Canis familiaris [33] = assay: Induction of emesis in sc dosed dog; format: functional; conditions: Canis lupus familiaris
Rattus norvegicus [34] = assay: Induction of stereotyped behaviour in Sprague-Dawley rat administered into caudate putamen; format: functional, organism-based
Rattus norvegicus [35] = assay: Induction of circling behaviour in sc dosed Sprague-Dawley rat assessed as reversal of spontaneous ipsilateral to contralateral circling response; format: functional, organism-based
Rattus norvegicus [36] = assay: Induction of circling behaviour in Sprague-Dawley rat administered into caudate putamen in presence of haloperidol; format: functional, organism-based
Rattus norvegicus [37] = assay: Induction of stereotyped behaviour in Sprague-Dawley rat administered into caudate putamen in presence of 0.2 to 0.8 mg/kg haloperidol; format: functional, organism-based
Felis catus [38] = assay: Inhibition of 2 Hz electric current-induced cardioaccelerator nerve stimulation in iv dosed cat by cardiotachometer analysis in presence of 2 mg/kg, iv phentolamine; format: functional, organism-based; design: dose 2 mg/kg; conditions: at 2 mg/kg
Rattus norvegicus [39] = assay: Induction of stereotyped behaviour in Sprague-Dawley rat administered into nucleus accumbens; format: functional, organism-based
Felis catus [40] = assay: Hypotensive activity in iv dosed cat; format: functional, organism-based
Felis catus [41] = assay: Effect on heart rate in iv dosed cat; format: functional, organism-based
Rattus norvegicus [42] = assay: Induction of hyperactivity in Sprague-Dawley rat administered into caudate putamen; format: functional, organism-based
Rattus norvegicus [43] = assay: Induction of stereotyped behaviour in Sprague-Dawley rat administered into nucleus accumbens in presence of 5 mg/kg aceperone; format: functional, organism-based; design: dose 5 mg/kg
Canis familiaris [44] = assay: Toxicity in dog up to 2 mg/kg, sc; format: organism-based, Canis lupus familiaris; design: dose 2 mg/kg, route subcutaneous; conditions: in vivo
Canis familiaris [45] = assay: Antagonism of apomorphine-induced emesis in sc dosed dog treated 15 mins prior to apomorphine challenge; format: functional, organism-based; conditions: Canis lupus familiaris

CCN(CC)CCc1ccc(O)c(O)c1
Activity (Rattus norvegicus [1]): inactive | ED50 (Felis catus [2]): 0.041 µmol/kg | inhibition (Felis catus [3]): inactive | ED50 (Columba livia [4]): inactive | Activity (Rattus norvegicus [5]): Active | Activity (Felis catus [6]): inactive | Activity (Rattus norvegicus [7]): Active | Activity (Rattus norvegicus [8]): inactive | Activity (Rattus norvegicus [9]): Active | Activity (Rattus norvegicus [10]): Active | Activity (Columba livia [11]): inactive | inhibition (Felis catus [12]): inactive | Activity (Rattus norvegicus [13]): Active | Activity (Rattus norvegicus [14]): Active | Activity (Rattus norvegicus [15]): inactive | Activity (Rattus norvegicus [16]): inactive | Activity (Rattus norvegicus [17]): Active | Activity (Rattus norvegicus [18]): Active | Activity (Rattus norvegicus [19]): Active | Time (Rattus norvegicus [20]): 3 min | Activity (Rattus norvegicus [21]): Active | ED50 (Felis catus [22]): 0.34 µM | Activity (Rattus norvegicus [23]): Active | Activity (Rattus norvegicus [24]): Active | Activity (Rattus norvegicus [25]): Active | Activity (Rattus norvegicus [26]): Active | Activity (Rattus norvegicus [27]): Active | Activity (Rattus norvegicus [28]): inactive | Activity (Rattus norvegicus [29]): Active | Activity (Rattus norvegicus [30]): inactive | Activity (Rattus norvegicus [31]): inactive | Time (Rattus norvegicus [32]): 5 min | ED50 (Canis familiaris [33]): inactive | Activity (Rattus norvegicus [34]): Active | Activity (Rattus norvegicus [35]): Active | Activity (Rattus norvegicus [36]): inactive | Activity (Rattus norvegicus [37]): inactive | inhibition (Felis catus [38]): Active | Activity (Rattus norvegicus [39]): Active | Activity (Felis catus [40]): Active | Activity (Felis catus [41]): inactive | Activity (Rattus norvegicus [42]): Active | Activity (Rattus norvegicus [43]): Active | Activity (Canis familiaris [44]): Non-toxic | inhibition (Canis familiaris [45]): inactive
